{"source": "patent US6875761B2", "about": "(Eisai Co., Ltd., priority 1997, dated 2005)", "note": "Structures can show the parent of a compound that is named as a salt.", "data": [{"values": [{"smiles": "CCN1CCN(c2nc(-c3ccc(CS(C)(=O)=O)cc3)cc3ccccc23)CC1", "note": "(as salt: hydrochloride) [Example 90, 3-(4-Methylsulfonylmethylphenyl)-1-(4-ethylpiperazin-1-yl)isoquinoline Hydrochloride]", "melting point": "260 to 262 °C"}, {"smiles": "CCN1CCN(c2nc(-c3ccc(CNS(=O)(=O)CC)c(Cl)c3)cc3ccccc23)CC1", "note": "(as salt: hydrochloride) [Example 91, 3-(3-Chloro-4-ethylsulfonylaminomethylphenyl)-1-(4-ethylpiperazin-1-yl)isoquinoline Hydrochloride]", "melting point": "278 to 280 °C (dec.)"}, {"smiles": "CCCS(=O)(=O)NCc1ccc(-c2cc3ccccc3c(N3CCN(CC)CC3)n2)cc1Cl", "note": "(as salt: hydrochloride) [Example 92, 3-(3-Chloro-4-propylsulfonylaminomethylphenyl)-1-(4-ethylpiperazin-1-yl)isoquinoline Hydrochloride]", "melting point": "253 to 255 °C (dec.)"}, {"smiles": "CCN1CCN(c2nc(-c3ccc(CN4CCSCC4)cc3)cc3ccccc23)CC1", "note": "(as salt: hydrochloride) [Example 94, 3-(4-Thiomorpholinylmethylphenyl)-1-(4-ethylpiperazin-1-yl)isoquinoline Hydrochloride]", "melting point": "193 to 197 °C"}, {"smiles": "CCN1CCN(c2nc(-c3ccc(N4CCOC4=O)cc3)cc3ccccc23)CC1", "note": "(as salt: hydrochloride) [Example 95, 3-[4-(3-Oxazolidinone)phenyl]-1-(4-ethylpiperazin-1-yl)isoquinoline Hydrochloride]", "melting point": "171 to 174 °C"}, {"smiles": "CCN1CCN(c2nc(-c3ccc(N4CCC(O)CC4)cc3)cc3ccccc23)CC1", "note": "(as salt: hydrochloride) [Example 97, 1-(4-Ethylpiperazin-1-yl)-3-[4-(4-hydroxypiperidin-1-yl)phenyl]isoquinoline Trihydrochloride]", "melting point": "178 °C"}, {"smiles": "CCN1CCN(c2nc(-c3ccc(N4CCC(OC)CC4)cc3)cc3ccccc23)CC1", "note": "(as salt: hydrochloride) [Example 98, 1-(4-Ethylpiperazin-1-yl)-3-[4-(4-methoxypiperidin-1-yl)phenyl]isoquinoline Trihydrochloride]", "melting point": "165 °C"}, {"smiles": "CCN1CCN(c2nc(CCc3ccc(OC)cc3)cc3ccccc23)CC1", "note": "(as salt: hydrochloride) [Example 106, 1-(1-Ethylpiperazin-4-yl)-3-(4-methoxyphenethyl)isoquinoline]", "melting point": "224 to 227 °C"}, {"smiles": "CCN1CCN(c2nc(C3CCc4c(OC)cccc43)cc3ccccc23)CC1", "note": "(stereo not shown) (as salt: hydrochloride) [Example 113, 3-(4-Methoxyindan-1-yl)-1-(4-ethylpiperazin-1-yl)isoquinoline Hydrochloride]", "melting point": "108 to 110 °C"}, {"smiles": "CCN1CCN(c2nc(-c3ccc4c(c3)CC(CO)CO4)cc3ccccc23)CC1", "note": "(stereo not shown) (as salt: hydrochloride) [Example 122, 3-(3-Hydroxymethylchroman-6-yl)-1-(4-Ethylpiperazin-1-yl)Isoquinoline Hydrochloride]", "melting point": "168 to 172 °C"}, {"smiles": "CCN1CCN(c2nc(-c3ccccn3)cc3ccccc23)CC1", "note": "(as salt: hydrochloride) [Example 123, 1-(4-Ethylpiperazin-1-yl)-3-(2-Pyridyl)Isoquinoline Dihydrochloride]", "melting point": "160 to 162 °C"}, {"smiles": "CCN1CCN(c2nc(-c3ccc(OCCO)cn3)cc3ccccc23)CC1", "note": "(as salt: hydrochloride) [Example 124, 1-(1-Ethylpiperazin-4-yl)-3-[5-(2-Hydroxyethoxy)Pyridin-2-yl]Isoquinoline]", "melting point": "110 to 115 °C"}, {"smiles": "CCN1CCN(c2nc(-c3ccc(OCCO)nc3)cc3ccccc23)CC1", "note": "(as salt: hydrochloride) [Example 125, 1-(1-Ethylpiperazin-4-yl)-3-[2-(2-Hydroxyethoxy)Pyridin-5-yl]Isoquinoline]", "melting point": "137 to 142 °C"}, {"smiles": "CCN1CCN(c2nc(-c3ccc(OCCOC)nc3)cc3ccccc23)CC1", "note": "(as salt: hydrochloride) [Example 126, 1-(1-Ethylpiperazin-4-yl)-3-[2-(2-Methoxyethoxy)Pyridin-5-yl]Isoquinoline]", "melting point": "115 to 120 °C"}, {"smiles": "CCN1CCN(c2nc(-c3ccc(OCCOC)cn3)cc3ccccc23)CC1", "note": "(as salt: hydrochloride) [Example 127, 1-(1-Ethylpiperazin-4-yl)-3-[5-(2-Methoxyethoxy)Pyridin-2-yl]Isoquinoline]", "melting point": "116 to 119 °C"}, {"smiles": "CCCC(=O)Nc1ccc(-c2cc3ccccc3c(N3CCN(CC)CC3)n2)cn1", "note": "(as salt: hydrochloride) [Example 128, 3-(2-propylcarbonylaminopyridin-5-yl)-1-(4-ethylpiperazin-1-yl)isoquinoline hydrochloride]", "melting point": "168 to 171 °C"}, {"smiles": "CCN1CCN(c2nc(-c3ccc(S(C)(=O)=O)nc3)cc3ccccc23)CC1", "note": "(as salt: hydrochloride) [Example 129, 3-[(2-Methylsulfonylpyridin)-5-yl]-1-(4-Ethylpiperazin-1-yl)Isoquinoline Hydrochloride]", "melting point": "248 to 250 °C"}, {"smiles": "CCN1CCN(c2nc(-c3ccc(S(=O)(=O)CC)nc3)cc3ccccc23)CC1", "note": "(as salt: hydrochloride) [Example 130, 3-[(2-Ethylsulfonylpyridin)-5-yl]-1-(4-Ethylpiperazin-1-yl)Isoquinoline Hydrochloride]", "melting point": "155 to 159 °C"}, {"smiles": "CCN1CCN(c2nc(-c3ccc(N4CCOCC4)nc3)cc3ccccc23)CC1", "note": "(as salt: hydrochloride) [Example 147, 1-(4-ethylpiperazin-1-yl)-3-[2-(morpholin-4-yl)pyridin-5-yl]isoquinoline trihydrochloride]", "melting point": "186 °C"}, {"smiles": "CCN1CCN(c2nc(-c3ccc(N4C[C@@H](C)O[C@@H](C)C4)nc3)cc3ccccc23)CC1", "note": "(as salt: hydrochloride) [Example 149, 3-[2-(2,6-dimethylmorpholin-4-yl)pyridin-5-yl]-1-(4-ethylpiperazin-1-yl)isoquinoline trihydrochloride]", "melting point": "180 °C"}, {"smiles": "CCN1CCN(c2nc(-c3ccc(N4CCSCC4)nc3)cc3ccccc23)CC1", "note": "(as salt: hydrochloride) [Example 150, 1-(4-ethylpiperazin-1-yl)-3-[2-(thiomorpholin-4-yl)pyridin-5-yl]isoquinoline trihydrochloride]", "melting point": "210 °C"}, {"smiles": "CCN1CCN(c2nc(-c3ccc(N4CC[S+]([O-])CC4)nc3)cc3ccccc23)CC1", "note": "(as salt: hydrochloride) [Example 151, 1-(4-ethylpiperazin-1-yl)-3-[2-(S-oxythiomorpholin-4-yl)pyridin-5-yl]isoquinoline trihydrochloride]", "melting point": "170 °C"}, {"smiles": "CCN1CCN(c2nc(-c3ccc(N4CCC(OC)CC4)nc3)cc3ccccc23)CC1", "note": "(as salt: hydrochloride) [Example 153, 1-(4-ethylpiperazin-1-yl)-3-[2-(4-methoxypiperidin-1-yl)pyridin-5-yl]isoquinoline trihydrochloride]", "melting point": "170 °C"}, {"smiles": "CCN1CCN(c2nc(-c3ccc(N4CCC(CO)CC4)nc3)cc3ccccc23)CC1", "note": "(as salt: hydrochloride) [Example 154, 1-(4-ethylpiperazin-1-yl)-3-[2-(4-hydroxymethylpiperidin-1-yl)pyridin-5-yl]isoquinoline trihydrochloride]", "melting point": "188 °C"}, {"smiles": "CCN1CCN(c2nc(-c3ccc(N4CCOCC4)cc3)cc3ccccc23)CC1", "note": "(as salt: hydrochloride) [Example 160, 3-[4-(4-morpholinyl)phenyl]-1-(4-ethylpiperazin-1-yl)isoquinoline dihydrochloride]", "melting point": "242 to 245 °C (dec.)"}, {"smiles": "CCN1CCN(c2nc(-c3csc(CO)c3)cc3ccccc23)CC1", "note": "(as salt: hydrochloride) [Example 161, 1-(1-ethylpiperazin-4-yl)-3-(2-hydroxymethylthiophen-4-yl)isoquinoline dihydrochloride]", "melting point": "170 °C"}, {"smiles": "CCN1CCN(c2nc(-c3cnc(N4CCOCC4)s3)cc3ccccc23)CC1", "note": "(as salt: hydrochloride) [Example 173, 1-(1-ethylpiperazin-4-yl)-3-[2-(4-morpholinyl)-5-thiazolyl]isoquinoline dihydrochloride]", "melting point": "265 °C (dec.)"}, {"smiles": "CCCC(=O)Nc1ncc(-c2cc3ccccc3c(N3CCN(CC)CC3)n2)cn1", "note": "(as salt: hydrochloride) [Example 174, 3-(2-Propylcarbonylaminopyrimidin-5-Yl)-1-(4-Ethylpiperazin-1-Yl)Isoquinoline Hydrochlroide]", "melting point": "216 to 219 °C"}, {"smiles": "CCN1CCN(c2nc(-c3ccc(C4=CCOCC4)s3)cc3ccccc23)CC1", "note": "(as salt: hydrochloride) [Example 176, 3-[2-(5,6-Dihydro-2H-Pyran-4-Yl)Thiophen-5-Yl]-1-[4-Ethylpiperazin-1-Yl)Isoquinoline Hydrochloride]", "melting point": "256 to 258 °C"}, {"smiles": "CCN1CCN(c2nc(C#Cc3ccccc3)cc3ccccc23)CC1", "note": "(as salt: hydrochloride) [Example 177, 1-(1-Ethylpiperazin-4-Yl)-3-(Phenylethynyl)Isoquinoline Dihydrochloride]", "melting point": "133 to 136 °C"}, {"smiles": "CCN1CCN(c2nc(C#Cc3ccc(OC)cc3)cc3ccccc23)CC1", "note": "(as salt: hydrochloride) [Example 178, 1-(1-Ethylpiperazin-4-Yl)-3-(4-Methoxyphenyl)Ethynylisoquinoline Dihydrochloride]", "melting point": "230 °C (dec.)"}, {"smiles": "CCN1CCN(c2nc(C#CCCc3ccccc3)cc3ccccc23)CC1", "note": "(as salt: hydrochloride) [Example 182, 1-(1-Ethylpiperazin-4-Yl)-3-[4-Phenyl-1-Butynyl)Isoquinoline Dihydrochloride]", "melting point": "120 to 128 °C"}, {"smiles": "CCN1CCN(c2nc(C#Cc3ccc(OCCO)cc3)cc3ccccc23)CC1", "note": "(as salt: hydrochloride) [Example 183, 1-(1-Ethylpiperazin-4-Yl]-3-[4-(2-Hydroxyethoxy)Phenylethynyl]Isoquinoline Dihydrochloride]", "melting point": "205 to 208 °C"}, {"smiles": "CCN1CCN(c2nc(C#Cc3cncc(CCCOC)c3)cc3ccccc23)CC1", "note": "(as salt: hydrochloride) [Example 186, 1-(1-Ethylpiperazin-4-Yl)-3-[3-(3-Methoxypropyl)-5-Pyridyl]Ethynylisoquinoline]", "melting point": "135 to 140 °C"}]}]}
